Reference: patent EP2042492A1, “Novel Iminooxazole and Iminothiazole Compounds” (Bayer CropScience AG, priority 2007, dated 2009)

Tests used:
Myzus persicae = Myzus persicae - test (MYZUPE spray application); assay type: in vivo; details: application rate of 500g/ha, spray on Chinese cabbage leaf-disks infected with all instars of green peach aphid, 100% = all aphids killed
Procedure: Myzus persicae - test; (MYZUPE spray application)
Chinese cabbage (Brassica pekinesis) leaf-disks infected with all instars of the green peach aphid (Myzus persicae), are sprayed with a preparation of the active ingredient at the desired concentration.
After the specified period of time, mortality in % is determined. 100% means that all aphids have been killed; 0% means that none of the aphids have been killed.

[1] = LogP via HPLC according to EEC directive 79/831 Annex V.A8 (gradient method, acetonitrile / 0,1 % aqueous formic acid); assay type: physicochemical; details: read-out: lgP (HCOOH)
Procedure: Step 2: A stirred mixture of 58 mg (0,24 mmol) of 1-[(1S)-1-(4-fluorophenyl)ethyl]-3-(2-hydroxyethyl)thiourea (preparation step 1) and 27 mg (0,29 mmol) of 1-chloro-propan-2-one in ethanol was refluxed for 18 hours. The solvent was evaporated under reduced pressure and the residue was heated to 70 °C with 25 % aqueous NH4OH solution. This aqueous solution was cooled to ambient temperature and extracted twice with dichloromethane. The organic layer was separated, dried with sodium sulfate and filtered off. The solvent was evaporated under reduced pressure. The residue was purified by chromatography (silica gel; cyclohexane/ethyl acetate = vol. 2:1) to afford 42 mg of 2-[(2E)-2-{[(1S)-1-(4-fluorophenyl)ethyl]imino}-4-methyl-1,3-thiazol-3(2H)-yl]ethanol. Yield: 42 mg (62,3 % of theory). logP (HCOOH) = 0,89 LogP values according EEC directive 79/831 Annex V.A8 via HPLC (gradient method, acetonitrile / 0,1 % aqueous formic acid).

Phaedon cochleariae = Phaedon cochleariae - test (PHAECO spray application); assay type: in vivo; details: application rate of 500g/ha, sprayed Chinese cabbage leaf-disks infested with mustard beetle larvae, 100 % = all beetle larvae killed
Procedure: Phaedon cochleariae - test; (PHAECO spray application)
(§1) To produce a suitable preparation of active compound, 1 part by weight of active compound is mixed with the stated amount of solvent and emulsifier, and the concentrate is diluted with emulsifier-containing water to the desired concentration.
Chinese cabbage (Brassica pekinesis) leaf-disks are sprayed with a preparation of the active ingredient of the desired concentration. Once dry, the leaf disks are infested with mustard beetle larvae (Phaedon cochleariae).
After the specified period of time, mortality in % is determined. 100 % means that all beetle larvae have been killed and 0 % means that none of the beetle larvae have been killed.

Tetranychus urticae = Tetranychus urticae - test; OP-resistant (TETRUR spray application); assay type: in vivo; details: application rate of 500g/ha, spray on French beans infested with all stages of two spotted spidermite, 100% = all spider mites killed
Procedure: Tetranychus urticae - test; OP-resistant (TETRUR spray application)
as §1
French beans (Phaseolus vulgaris) which are heavily infested with all stages of the two spotted spidermite (Tetranychus urticae), are sprayed with a preparation of the active ingredient at the desired concentration.
After the specified period of time, mortality in % is determined. 100% means that all spider mites have been killed and 0% means that none of the spider mites have been killed.

Row | Structure (SMILES) | mortality at 500 g/ha (Myzus persicae) | chromatographic logP [1] | mortality at 500 g/ha (Phaedon cochleariae) | mortality at 500 g/ha (Tetranychus urticae)
1 | C[C@H](N=c1scc(-c2cccnc2)n1CCO)c1ccc(F)cc1 [Example 2-162] | ≥ 80% | 0.9 |  | 
2 | C[C@H](N=c1scc(C2CCCC2)n1CCO)c1ccc(F)cc1 [Example 2-158] | ≥ 80% | 1.31 |  | 
3 | COc1ccc([C@H](C)N=c2scc(C3CCCC3)n2CCO)cc1 [Example 2-278] |  | 1.33 |  | 
4 | C[C@H](N=c1scc(C2CC2)n1CCO)c1ccccc1 [Example 2-22] | ≥ 80% | 1.01 |  | 
5 | C[C@H](N=c1scc(-c2cccnc2)n1CCO)c1ccc(Cl)cc1 [Example 2-297] | ≥ 80% | 1.03 |  | 
6 | COc1ccc([C@H](C)N=c2scc(C(C)C)n2CCO)cc1 [Example 2-274] |  | 1.09 |  | 
7 | C[C@H](N=c1scc(C2CCCC2)n1CCO)c1ccccc1 [Example 2-23] | ≥ 80% | 1.26 |  | 
8 | C[C@H](N=c1scc(-c2ccccc2)n1CCO)c1ccccc1 [Example 2-25] | ≥ 80% | 1.19 |  | 
9 | Cc1cs/c(=N/[C@@H](C)c2ccc(F)cc2)n1CCO [Example 2-152, 2-[(2E)-2-{[(1S)-1-(4-fluorophenyl)ethyl]imino}-4-methyl-1,3-thiazol-3(2H)-yl]ethanol] | ≥ 80% | 0.89 |  | 
10 | CCc1csc(=N[C@@H](CC)c2ccccc2)n1CCO [Example 2-363] | ≥ 80% | 1.09 |  | 
11 | Cc1sc(=N[C@@H](C)c2ccccc2)n(CCO)c1C [Example 2-21] | ≥ 80% | 1.13 |  | 
12 | CCc1csc(=N[C@@H](C)c2ccc(OC)cc2)n1CCO [Example 2-273] |  | 1 |  | 
13 | C[C@H](N=c1scc(C2(Cl)CC2)n1CCO)c1ccccc1 [Example 2-29] | ≥ 80% | 1.12 |  | 
14 | C[C@H](N=c1scc(-c2cccnc2)n1CCO)c1ccccc1 [Example 2-27] | ≥ 80% | 0.85 |  | 
15 | CC(C)c1csc(=N[C@@H](C)c2ccc(F)cc2)n1CCO [Example 2-154] | ≥ 80% | 1.12 |  | 
16 | C[C@H](N=c1scc(C2CC2)n1CCO)c1ccc(F)cc1 [Example 2-157] | ≥ 80% | 1.03 |  | 
17 | C[C@H](N=c1scc(C2CCCC2)n1CCO)c1ccc(Cl)cc1 [Example 2-293] | ≥ 80% | 1.42 |  | 
18 | CC[C@H](N=c1scc(C)n1CCO)c1ccccc1 [Example 2-362] | ≥ 80% | 0.98 |  | 
19 | CC[C@H](N=c1scc(-c2cccnc2)n1CCO)c1ccccc1 [Example 2-372] | ≥ 80% | 1 |  | 
20 | CC[C@H](N=c1scc(C(C)C)n1CCO)c1ccccc1 [Example 2-364] | ≥ 80% | 1.19 |  | 

Row | Structure (SMILES) | mortality at 500 g/ha (Myzus persicae) | chromatographic logP [1] | mortality at 500 g/ha (Phaedon cochleariae) | mortality at 500 g/ha (Tetranychus urticae)
21 | COc1ccc([C@H](C)N=c2scc(C)n2CCO)cc1 [Example 2-272] |  | 0.89 |  | 
22 | CCc1csc(=N[C@@H](C)c2ccc(F)cc2)n1CCO [Example 2-153] | ≥ 80% | 1 | ≥ 80% | 
23 | Cc1csc(=N[C@@H](C)c2ccc(Cl)cc2)n1CCO [Example 2-287] | ≥ 80% | 1.03 |  | ≥ 80%
24 | CC(C)c1csc(=N[C@@H](C)c2ccc(Cl)cc2)n1CCO [Example 2-289] | ≥ 80% | 1.28 |  | 
25 | Cc1csc(=N[C@@H](C)c2ccccc2)n1CCO [Example 2-17] | ≥ 80% | 0.85 |  | 
26 | CC[C@H](N=c1scc(C2CC2)n1CCO)c1ccccc1 [Example 2-367] | ≥ 80% | 1.14 |  | 
27 | COc1ccc([C@H](C)N=c2scc(C3(Cl)CC3)n2CCO)cc1 [Example 2-284] |  | 1.14 |  | 
28 | COc1ccc([C@H](C)N=c2scc(C3CC3)n2CCO)cc1 [Example 2-277] |  | 1.05 |  | 
29 | CCc1csc(=N[C@@H](C)c2ccc(Cl)cc2)n1CCO [Example 2-288] | ≥ 80% | 1.14 |  | ≥ 80%
30 | CC(C)c1csc(=N[C@@H](C)c2ccccc2)n1CCO [Example 2-19] | ≥ 80% | 1.07 |  | 
31 | C[C@H](N=c1scc(C2(Cl)CC2)n1CCO)c1ccc(F)cc1 [Example 2-164] | ≥ 80% | 1.14 |  | 
32 | C[C@H](N=c1scc(C2(Cl)CC2)n1CCO)c1ccc(Cl)cc1 [Example 2-299] | ≥ 80% | 1.33 |  | 
33 | C[C@H](N=c1scc(-c2ccccc2)n1CCO)c1ccc(Cl)cc1 [Example 2-295] | ≥ 80% | 1.38 |  | 
34 | CC[C@H](N=c1scc(C2(Cl)CC2)n1CCO)c1ccccc1 [Example 2-374] | ≥ 80% | 1.19 |  | 
35 | COc1ccc([C@H](C)N=c2scc(-c3ccccc3)n2CCO)cc1 [Example 2-280] |  | 1.26 |  | 
36 | COc1ccc([C@H](C)N=c2scc(-c3cccnc3)n2CCO)cc1 [Example 2-282] |  | 0.9 |  | 
37 | CC[C@H](N=c1scc(-c2ccccc2)n1CCO)c1ccccc1 [Example 2-370] | ≥ 80% | 1.33 |  | 
38 | CC[C@H](N=c1scc(C2CCCC2)n1CCO)c1ccccc1 [Example 2-368] | ≥ 80% | 1.4 |  | 
39 | CCc1csc(=N[C@@H](C)c2ccccc2)n1CCO [Example 2-18] | ≥ 80% | 0.96 |  | 
40 | C[C@H](N=c1scc(-c2ccccc2)n1CCO)c1ccc(F)cc1 [Example 2-160] | ≥ 80% | 1.26 |  | 
